Laboratory results reported in patent US20160206688A1, “METHODS FOR TREATING BACTEREMIA AND OSTEOMYELITIS USING ORITAVANCIN” (THE MEDICINES COMPANY, priority 2013, published 2016).
In brackets after ≈: the same amount, converted by molar mass. Like-named read-outs stand apart in the source and are kept apart here.

Assays:
S. aureus = assay: Broth microdilution MIC, European bacteraemia isolates 2010-2012; format: cell-based
Procedure, shortened: (§1)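 Bacteraemia isolates from European, Israeli, Russian, Turkish and Ukrainian hospitals (2010-2012) tested centrally by CLSI M07-A9 broth microdilution in cation-adjusted Mueller-Hinton broth with 0.002% polysorbate-80. QC strains E. faecalis ATCC 29212 and S. aureus ATCC 29213; interpretation per CLSI M100-S23 and EUCAST 2013.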

[1] = tested on: Coagulase-negative staphylococci; assay: as above; format: cell-based, coagulase-negative staphylococci (CoNS); details: for Number inhibited at MIC: CoNS, Methicillin-resistant (509)
Procedure, shortened: as §1

[2] = S. aureus, Methicillin-Susceptible (1,126), at ≦0.008 mg/L
[3] = S. aureus, Methicillin-resistant (372), at ≦0.008 mg/L
[4] = S. aureus, Vancomycin MIC = 2 mg/L (19), at 0.015 mg/L
[5] = S. aureus, Vancomycin MIC = 2 mg/L (19), at 0.03 mg/L
[6] = S. aureus, Vancomycin MIC = 2 mg/L (19), at 0.06 mg/L
[7] = S. aureus, Vancomycin MIC = 2 mg/L (19), at 0.12 mg/L
[8] = Staphylococcus aureus, Table 1, S. aureus, Methicillin-Susceptible (1,126)
[9] = Staphylococcus aureus, Table 1, S. aureus, Methicillin-resistant (372)
[10] = Staphylococcus aureus, read-out: cumulative % inhibited at MIC
[11] = Staphylococcus aureus, Table 2, S. aureus Methicillin-resistant (1,708)

SMILES: CN[C@H](CC(C)C)C(=O)N[C@H]1C(=O)N[C@@H](CC(N)=O)C(=O)N[C@H]2C(=O)N[C@H]3C(=O)N[C@H](C(=O)N[C@H](C(=O)O)c4cc(O)cc(O)c4-c4cc3ccc4O)[C@H](O[C@H]3C[C@](C)(N)[C@@H](O)[C@H](C)O3)c3ccc(c(Cl)c3)Oc3cc2cc(c3O[C@@H]2O[C@H](CO)[C@@H](O)[C@H](O)[C@H]2O[C@H]2C[C@](C)(NCc3ccc(-c4ccc(Cl)cc4)cc3)[C@@H](O)[C@H](C)O2)Oc2ccc(cc2Cl)[C@H]1O [Oritavancin, N-(4-(4-chlorophenyl)benzyl)A82846B]
- activity relative to vancomycin or linezolid (S. aureus; MRSA strains, MIC50/90): 16- to 32 fold
- potency relative to daptomycin (S. aureus; MRSA strains, MIC50/90): eight-fold
- MIC50, MIC90 and modal MIC relative to strains with vancomycin MIC≦1 mg/L (S. aureus; S. aureus isolates with decreased susceptibility to vancomycin (MIC=2 mg/L)): two-fold higher
- Number inhibited at MIC (S. aureus; S. aureus, Methicillin-Susceptible (1,126), at 0.015 mg/L): 247
- Number inhibited at MIC (S. aureus; S. aureus, Methicillin-Susceptible (1,126), at 0.03 mg/L): 458
- Number inhibited at MIC (S. aureus; S. aureus, Methicillin-Susceptible (1,126), at 0.06 mg/L): 297
- Number inhibited at MIC (S. aureus; S. aureus, Methicillin-Susceptible (1,126), at 0.12 mg/L): 78
- Number inhibited at MIC (S. aureus; S. aureus, Methicillin-Susceptible (1,126), at 0.25 mg/L): 18
- Number inhibited at MIC (S. aureus; [2]): 28
- cumulative % inhibited at MIC (S. aureus; [2]): 2.5%
- Number inhibited at MIC (S. aureus; S. aureus, Methicillin-resistant (372), at 0.015 mg/L): 86
- Number inhibited at MIC (S. aureus; S. aureus, Methicillin-resistant (372), at 0.03 mg/L): 180
- Number inhibited at MIC (S. aureus; S. aureus, Methicillin-resistant (372), at 0.06 mg/L): 68
- Number inhibited at MIC (S. aureus; S. aureus, Methicillin-resistant (372), at 0.12 mg/L): 27
- Number inhibited at MIC (S. aureus; S. aureus, Methicillin-resistant (372), at 0.25 mg/L): 6
- Number inhibited at MIC (S. aureus; [3]): 5
- cumulative % inhibited at MIC (S. aureus; [3]): 1.3%
- Number inhibited at MIC (S. aureus; [4]): 1
- cumulative % inhibited at MIC (S. aureus; [4]): 5.3%
- Number inhibited at MIC (S. aureus; [5]): 3
- cumulative % inhibited at MIC (S. aureus; [5]): 21.1%
- Number inhibited at MIC (S. aureus; [6]): 11
- cumulative % inhibited at MIC (S. aureus; [6]): 78.9%
- Number inhibited at MIC (S. aureus; [7]): 3
- cumulative % inhibited at MIC (S. aureus; [7]): 94.7%
- Number inhibited at MIC (S. aureus; S. aureus, Vancomycin MIC = 2 mg/L (19), at 0.25 mg/L): 1
- Number inhibited at MIC (S. aureus; S. aureus, Vancomycin MIC = 2 mg/L (19), at ≦0.008 mg/L): 0
- Number inhibited at MIC (S. aureus; S. aureus, Vancomycin MIC ≦1 mg/L (1,479), at 0.12 mg/L): 102
- Number inhibited at MIC (S. aureus; S. aureus, Vancomycin MIC ≦1 mg/L (1,479), at 0.25 mg/L): 23
- MIC50 (S. aureus; Staphylococcus aureus): 0.03 µg/mL (≈ 0.0167 µM)
- MIC90 (S. aureus; Staphylococcus aureus): 0.06 µg/mL (≈ 0.0335 µM)
- inhibition at 2 µg/mL (S. aureus; Staphylococcus aureus, S. aureus, Vancomycin MIC = 2 mg/L (19), at ≦0.008 mg/L, read-out: cumulative % inhibited at MIC): 0%
- inhibition at 0.12 µg/mL (S. aureus; Staphylococcus aureus, S. aureus, Vancomycin MIC ≦1 mg/L (1,479), at 0.12 mg/L, read-out: cumulative % inhibited at MIC): 98.4%
- inhibition at 0.25 µg/mL (S. aureus; Staphylococcus aureus, S. aureus, Vancomycin MIC ≦1 mg/L (1,479), at 0.25 mg/L, read-out: cumulative % inhibited at MIC): 100%
- MIC50 (S. aureus; [8]): 0.03 µg/mL (≈ 0.0167 µM)
- MIC90 (S. aureus; [8]): 0.06 µg/mL (≈ 0.0335 µM)
- MIC50 (S. aureus; [9]): 0.03 µg/mL (≈ 0.0167 µM)
- MIC90 (S. aureus; [9]): 0.06 µg/mL (≈ 0.0335 µM)
- MIC50 (S. aureus; Staphylococcus aureus, Table 1, S. aureus, Vancomycin MIC = 2 mg/L (19), read-out: MIC 50%): 0.06 µg/mL (≈ 0.0335 µM)
- MIC90 (S. aureus; Staphylococcus aureus, Table 1, S. aureus, Vancomycin MIC = 2 mg/L (19), read-out: MIC 90%): 0.12 µg/mL (≈ 0.0669 µM)
- inhibition at 0.015 µg/mL (S. aureus; [10]): 24.7%
- inhibition at 0.03 µg/mL (S. aureus; [10]): 67.6%
- inhibition at 0.06 µg/mL (S. aureus; [10]): 91.5%
- inhibition at 0.015 µg/mL (S. aureus; Staphylococcus aureus, read-out: cumulative % inhibited at MIC, S. aureus, Methicillin-Susceptible (1,126), at 0.015 mg/L): 24.4%
- inhibition at 0.03 µg/mL (S. aureus; Staphylococcus aureus, read-out: cumulative % inhibited at MIC, S. aureus, Methicillin-Susceptible (1,126), at 0.03 mg/L): 65.1%
- inhibition at 0.06 µg/mL (S. aureus; Staphylococcus aureus, read-out: cumulative % inhibited at MIC, S. aureus, Methicillin-Susceptible (1,126), at 0.06 mg/L): 91.5%
- inhibition at 0.12 µg/mL (S. aureus; Staphylococcus aureus, read-out: cumulative % inhibited at MIC, S. aureus, Methicillin-Susceptible (1,126), at 0.12 mg/L): 98.4%
- inhibition at 0.25 µg/mL (S. aureus; Staphylococcus aureus, read-out: cumulative % inhibited at MIC, S. aureus, Methicillin-Susceptible (1,126), at 0.25 mg/L): 100%
- inhibition at 0.015 µg/mL (S. aureus; Staphylococcus aureus, read-out: cumulative % inhibited at MIC, S. aureus, Methicillin-resistant (372), at 0.015 mg/L): 24.5%
- inhibition at 0.03 µg/mL (S. aureus; Staphylococcus aureus, read-out: cumulative % inhibited at MIC, S. aureus, Methicillin-resistant (372), at 0.03 mg/L): 72.9%
- inhibition at 0.06 µg/mL (S. aureus; Staphylococcus aureus, read-out: cumulative % inhibited at MIC, S. aureus, Methicillin-resistant (372), at 0.06 mg/L): 91.1%
- inhibition at 0.12 µg/mL (S. aureus; Staphylococcus aureus, read-out: cumulative % inhibited at MIC, S. aureus, Methicillin-resistant (372), at 0.12 mg/L): 98.4%
- inhibition at 0.25 µg/mL (S. aureus; Staphylococcus aureus, read-out: cumulative % inhibited at MIC, S. aureus, Methicillin-resistant (372), at 0.25 mg/L): 100%
- MIC50 (S. aureus; [11]): 0.03 µg/mL (≈ 0.0167 µM)
- MIC90 (S. aureus; [11]): 0.06 µg/mL (≈ 0.0335 µM)
- MIC Range (S. aureus; Table 2, S. aureus Methicillin-resistant (1,708)): ≦0.008-0.25 mg/L
- MIC50 [1]: 0.03 µg/mL (≈ 0.0167 µM)
- MIC90 [1]: 0.06 µg/mL (≈ 0.0335 µM)
- MIC50 and MIC90 lower than linezolid ([1]; CoNS isolates): 16 fold
- MIC values lower than vancomycin ([1]; CoNS isolates): 32- to 64 fold
- MIC results relative to strains with teicoplanin MIC≦4 mg/L ([1]; CoNS with decreased susceptibility to teicoplanin (MIC≧8 mg/L)): two-fold higher
- MIC ([1]; CoNS with decreased susceptibility to teicoplanin (MIC≧8 mg/L), read-out: highest MIC value): 0.25 µg/mL (≈ 0.139 µM)
- Number inhibited at MIC ([1]; at 0.015 mg/L): 77
- Number inhibited at MIC ([1]; at 0.03 mg/L): 181
- Number inhibited at MIC ([1]; at 0.06 mg/L): 114
